Literature values, collected in patent US20160128943A1, “CONTROLLED RELEASE CAFFEINE DOSAGE FORMS” (priority 2013, published 2016).

Legend:
central nervous system = conditions: after absorption

SMILES: Cn1c(=O)c2c(ncn2C)n(C)c1=O [caffeine]
- time to peak levels in the circulation of the bloodstream (after consumption): fifteen and forty-five
- average half-life (average person, after ingestion): three and one half
- time to maximum effect of central nervous system stimulation (central nervous system): thirty and sixty
